Active and inactive are the calls of the source. No cut-off for these calls is given here.
Assays:
A549 [1] = assay: Growth inhibition of human A549 cells grown under 3D anchorage-independent soft-agar conditions at 3330 nM incubated for 14 days by alamar blue dye based assay relative to control; assay type: functional; settings: A549, 336 h, read-out: GI
A549 [2] = assay: Growth inhibition of human A549 cells grown under 3D anchorage-independent soft-agar conditions at 123 nM incubated for 14 days by alamar blue dye based assay relative to control; assay type: functional; settings: A549, 336 h, read-out: GI
A549 [3] = assay: Growth inhibition of human A549 cells grown under 3D anchorage-independent soft-agar conditions at 164 nM incubated for 14 days by alamar blue dye based assay relative to control; assay type: functional; settings: A549, 336 h, read-out: GI
A549 [4] = assay: Growth inhibition of human A549 cells grown under 3D anchorage-independent soft-agar conditions at 370 nM incubated for 14 days by alamar blue dye based assay relative to control; assay type: functional; settings: A549, 336 h, read-out: GI
A549 [5] = assay: Growth inhibition of human A549 cells grown under 3D anchorage-independent soft-agar conditions at 1110 nM incubated for 14 days by alamar blue dye based assay relative to control; assay type: functional; settings: A549, 336 h, read-out: GI
NCI-H358 [6] = assay: Growth inhibition of human NCI-H358 cells grown under 3D anchorage-independent soft-agar conditions at 37 nM incubated for 14 days by alamar blue dye based assay relative to control; assay type: functional; settings: NCI-H358, 336 h, read-out: GI
NCI-H1792 [7] = assay: Growth inhibition of human NCI-H1792 cells grown under 3D anchorage-independent soft-agar conditions at 111 nM incubated for 14 days by alamar blue dye based assay relative to control; assay type: functional; settings: NCI-H1792, 336 h, read-out: GI
NCI-H1792 [8] = assay: Growth inhibition of human NCI-H1792 cells grown under 3D anchorage-independent soft-agar conditions at 333 nM incubated for 14 days by alamar blue dye based assay relative to control; assay type: functional; settings: NCI-H1792, 336 h, read-out: GI
NCI-H1792 [9] = assay: Growth inhibition of human NCI-H1792 cells grown under 3D anchorage-independent soft-agar conditions at 1000 nM incubated for 14 days by alamar blue dye based assay relative to control; assay type: functional; settings: NCI-H1792, 336 h, read-out: GI
NCI-H1792 [10] = assay: Growth inhibition of human NCI-H1792 cells grown under 3D anchorage-independent soft-agar conditions at 37 nM incubated for 14 days by alamar blue dye based assay relative to control; assay type: functional; settings: NCI-H1792, 336 h, read-out: GI
NCI-H358 [11] = assay: Growth inhibition of human NCI-H358 cells grown under 3D anchorage-independent soft-agar conditions at 333 nM incubated for 14 days by alamar blue dye based assay relative to control; assay type: functional; settings: NCI-H358, 336 h, read-out: GI
NCI-H1792 [12] = assay: Growth inhibition of human NCI-H1792 cells grown under 3D anchorage-independent soft-agar conditions at 12.3 nM incubated for 14 days by alamar blue dye based assay relative to control; assay type: functional; settings: NCI-H1792, 336 h, read-out: GI
NCI-H358 [13] = assay: Growth inhibition of human NCI-H358 cells grown under 3D anchorage-independent soft-agar conditions at 1000 nM incubated for 14 days by alamar blue dye based assay relative to control; assay type: functional; settings: NCI-H358, 336 h, read-out: GI
NCI-H358 [14] = assay: Growth inhibition of human NCI-H358 cells grown under 3D anchorage-independent soft-agar conditions at 111 nM incubated for 14 days by alamar blue dye based assay relative to control; assay type: functional; settings: NCI-H358, 336 h, read-out: GI
NCI-H358 [15] = assay: Growth inhibition of human NCI-H358 cells grown under 3D anchorage-independent soft-agar conditions at 12.3 nM incubated for 14 days by alamar blue dye based assay relative to control; assay type: functional; settings: NCI-H358, 336 h, read-out: GI
SW900 [16] = assay: Growth inhibition of human SW900 cells grown under 3D anchorage-independent soft-agar conditions at 164 nM incubated for 14 days by alamar blue dye based assay relative to control; assay type: functional; settings: SW900, 336 h, read-out: GI
SW900 [17] = assay: Growth inhibition of human SW900 cells grown under 3D anchorage-independent soft-agar conditions at 123 nM incubated for 14 days by alamar blue dye based assay relative to control; assay type: functional; settings: SW900, 336 h, read-out: GI
SW900 [18] = assay: Growth inhibition of human SW900 cells grown under 3D anchorage-independent soft-agar conditions at 1110 nM incubated for 14 days by alamar blue dye based assay relative to control; assay type: functional; settings: SW900, 336 h, read-out: GI
SW900 [19] = assay: Growth inhibition of human SW900 cells grown under 3D anchorage-independent soft-agar conditions at 370 nM incubated for 14 days by alamar blue dye based assay relative to control; assay type: functional; settings: SW900, 336 h, read-out: GI
NCI-H1792 [20] = assay: Growth inhibition of human NCI-H1792 cells grown under 3D anchorage-independent soft-agar conditions at 1110 nM incubated for 14 days by alamar blue dye based assay relative to control; assay type: functional; settings: NCI-H1792, 336 h, read-out: GI
NCI-H1792 [21] = assay: Growth inhibition of human NCI-H1792 cells grown under 3D anchorage-independent soft-agar conditions at 123 nM incubated for 14 days by alamar blue dye based assay relative to control; assay type: functional; settings: NCI-H1792, 336 h, read-out: GI
NCI-H1792 [22] = assay: Growth inhibition of human NCI-H1792 cells grown under 3D anchorage-independent soft-agar conditions at 3330 nM incubated for 14 days by alamar blue dye based assay relative to control; assay type: functional; settings: NCI-H1792, 336 h, read-out: GI
NCI-H1792 [23] = assay: Growth inhibition of human NCI-H1792 cells grown under 3D anchorage-independent soft-agar conditions at 164 nM incubated for 14 days by alamar blue dye based assay relative to control; assay type: functional; settings: NCI-H1792, 336 h, read-out: GI
NCI-H1792 [24] = assay: Growth inhibition of human NCI-H1792 cells grown under 3D anchorage-independent soft-agar conditions at 370 nM incubated for 14 days by alamar blue dye based assay relative to control; assay type: functional; settings: NCI-H1792, 336 h, read-out: GI
SW900 [25] = assay: Growth inhibition of human SW900 cells grown under 3D anchorage-independent soft-agar conditions at 3330 nM incubated for 14 days by alamar blue dye based assay relative to control; assay type: functional; settings: SW900, 336 h, read-out: GI
NCI-H1792 [26] = assay: Growth inhibition of human NCI-H1792 cells grown under 3D anchorage-independent soft-agar conditions at 11.1 nM incubated for 14 days by alamar blue dye based assay relative to control; assay type: functional; settings: NCI-H1792, 336 h, read-out: GI
NCI-H1792 [27] = assay: Growth inhibition of human NCI-H1792 cells grown under 3D anchorage-independent soft-agar conditions at 1.23 nM incubated for 14 days by alamar blue dye based assay relative to control; assay type: functional; settings: NCI-H1792, 336 h, read-out: GI
A549 [28] = assay: Growth inhibition of human A549 cells grown under 3D anchorage-independent soft-agar conditions at 3.7 nM incubated for 14 days by alamar blue dye based assay relative to control; assay type: functional; settings: A549, 336 h, read-out: GI
NCI-H1792 [29] = assay: Growth inhibition of human NCI-H1792 cells grown under 3D anchorage-independent soft-agar conditions at 100 nM incubated for 14 days by alamar blue dye based assay relative to control; assay type: functional; settings: NCI-H1792, 336 h, read-out: GI
A549 [30] = assay: Growth inhibition of human A549 cells grown under 3D anchorage-independent soft-agar conditions at 100 nM incubated for 14 days by alamar blue dye based assay relative to control; assay type: functional; settings: A549, 336 h, read-out: GI
NCI-H1792 [31] = assay: Growth inhibition of human NCI-H1792 cells grown under 3D anchorage-independent soft-agar conditions at 3.7 nM incubated for 14 days by alamar blue dye based assay relative to control; assay type: functional; settings: NCI-H1792, 336 h, read-out: GI
A549 [32] = assay: Growth inhibition of human A549 cells grown under 3D anchorage-independent soft-agar conditions at 1.23 nM incubated for 14 days by alamar blue dye based assay relative to control; assay type: functional; settings: A549, 336 h, read-out: GI
MIA PaCa-2 = assay: Antitumor activity against human MIAPaCa2 cells grown under 3D anchorage-independent soft-agar conditions at xenografted in BomTacNMRI-Foxn1 nu mouse assessed as inhibition of tumor regression at 10 mg/kg, iv dosed in q7d regime relative to control; assay type: functional, organism-based
A549 [33] = assay: Growth inhibition of human A549 cells grown under 3D anchorage-independent soft-agar conditions at 11.1 nM incubated for 14 days by alamar blue dye based assay relative to control; assay type: functional; settings: A549, 336 h, read-out: GI
NCI-H1792 [34] = assay: Growth inhibition of human NCI-H1792 cells grown under 3D anchorage-independent soft-agar conditions at 33.3 nM incubated for 14 days by alamar blue dye based assay relative to control; assay type: functional; settings: NCI-H1792, 336 h, read-out: GI
A549 [35] = assay: Growth inhibition of human A549 cells grown under 3D anchorage-independent soft-agar conditions at 33.3 nM incubated for 14 days by alamar blue dye based assay relative to control; assay type: functional; settings: A549, 336 h, read-out: GI

Compound: COc1cc(F)c(F)c(Nc2ccc(I)cc2F)c1NS(=O)(=O)C1(C[C@H](O)CO)CC1 [REFAMETINIB]
- inhibition of growth at 3.33 µM (A549 [1]): 209%
- inhibition of growth at 0.123 µM (A549 [2]): 5%
- inhibition of growth at 0.164 µM (A549 [3]): 212%
- inhibition of growth at 0.37 µM (A549 [4]): 11%
- inhibition of growth at 1.11 µM (A549 [5]): 75%

Compound: C=CC(=O)N1CCN(c2ncnc3c(F)c(-c4cc(O)cc5ccccc45)c(Cl)cc23)CC1
- inhibition of growth at 0.037 µM (NCI-H358 [6]): 47%
- inhibition of growth at 0.111 µM (NCI-H1792 [7]): 42%
- inhibition of growth at 0.333 µM (NCI-H1792 [8]): 46%
- inhibition of growth at 1 µM (NCI-H1792 [9]): 81%
- inhibition of growth at 0.037 µM (NCI-H1792 [10]): 29%
- inhibition of growth at 0.333 µM (NCI-H358 [11]): 139%
- inhibition of growth at 0.0123 µM (NCI-H1792 [12]): 5%
- inhibition of growth at 1 µM (NCI-H358 [13]): 180%
- inhibition of growth at 0.111 µM (NCI-H358 [14]): 87%
- inhibition of growth at 0.0123 µM (NCI-H358 [15]): 17%

Compound: COC(=O)c1ccc2c(c1)NC(=O)/C2=C(\Nc1ccc(N(C)C(=O)CN2CCN(C)CC2)cc1)c1ccccc1 [NINTEDANIB]
- inhibition of growth at 0.164 µM (SW900 [16]): 199%
- inhibition of growth at 0.123 µM (SW900 [17]): -39%
- inhibition of growth at 1.11 µM (SW900 [18]): -18%
- inhibition of growth at 0.37 µM (SW900 [19]): -37%
- inhibition of growth at 1.11 µM (NCI-H1792 [20]): 26%
- inhibition of growth at 0.123 µM (NCI-H1792 [21]): 1%
- inhibition of growth at 3.33 µM (NCI-H1792 [22]): 86%
- inhibition of growth at 0.164 µM (NCI-H1792 [23]): 186%
- inhibition of growth at 0.37 µM (NCI-H1792 [24]): 7%
- inhibition of growth at 3.33 µM (SW900 [25]): 19%

Compound: CC(=O)O[C@H]1C(=O)[C@@]2(C)[C@H]([C@H](OC(=O)c3ccccc3)[C@]3(O)C[C@H](OC(=O)[C@H](O)[C@@H](NC(=O)c4ccccc4)c4ccccc4)C(C)=C1C3(C)C)[C@]1(OC(C)=O)CO[C@@H]1C[C@@H]2O [PACLITAXEL]
- inhibition of growth at 0.0111 µM (NCI-H1792 [26]): 66%
- inhibition of growth at 0.00123 µM (NCI-H1792 [27]): 7%
- inhibition of growth at 0.0037 µM (A549 [28]): 54%
- inhibition of growth at 0.1 µM (NCI-H1792 [29]): 183%
- inhibition of growth at 0.1 µM (A549 [30]): 114%
- inhibition of growth at 0.0037 µM (NCI-H1792 [31]): 19%
- inhibition of growth at 0.00123 µM (A549 [32]): 12%
- inhibition (MIA PaCa-2): inactive
- inhibition of growth at 0.0111 µM (A549 [33]): 86%
- inhibition of growth at 0.0333 µM (NCI-H1792 [34]): 96%
- inhibition of growth at 0.0333 µM (A549 [35]): 97%

Source: ChEMBL document CHEMBL4420081, “Novel benzylamino substituted quinazolines and derivatives as sos1 inhibitors” (2018)
